The target of the experiment is T1, Angiotensin-Converting Enzyme (ACE) (Homo sapiens, UniProt P12821).
T1 construct: purchased Dojindo Laboratories ACE Kit-WST A502
Put plainly: ACE inhibition assay (Dojindo ACE Kit-WST A502). It counts as biochemical. To be noted: synthesized peptides, six concentrations 10 to 100 μg/mL; read-out: IC50 Values (μM), ACE inhibition capacity. On the procedure:
Dojindo ACE Kit-WST A502 was used for testing the ACE-inhibitory activity. Principles of the kit were described in details in a previous report. Testing procedures were run strictly according to the manufacturer’s instructions using a 96-well plate, and inhibition rate was calculated based on the comparison of optical absorbance of sample-treated wells (As), control wells (Ac) and blank wells (Ab) as in the equation below. Absorbance was measured at 450 nm using microplate reader-Biotek-ELX800 (BioTek, Winooski, VT, USA): Inhibition rate (%) = [(Ac − As)/(Ac − Ab)]×100 (1)
For the peptides, six different concentrations of each peptide, ranging from 10 to 100 μg/mL, were assayed, and dose-response curves were plotted for the calculation of the IC50 values. IPP has been proven to be an ACE inhibitor [34] and thus was used as positive control (at concentrations ranging from 0.15 to 5 μg/mL).

Where a SMILES comes first, the peptide text is derived from it.

The source of these data is publication PMC6271714, “Hypotensive Effects and Angiotensin-Converting Enzyme Inhibitory Peptides of Reishi (Ganoderma lingzhi) Auto-Digested Extract” (Molecules, 2014).

T1 sequence (P12821 30-1306, species assumed): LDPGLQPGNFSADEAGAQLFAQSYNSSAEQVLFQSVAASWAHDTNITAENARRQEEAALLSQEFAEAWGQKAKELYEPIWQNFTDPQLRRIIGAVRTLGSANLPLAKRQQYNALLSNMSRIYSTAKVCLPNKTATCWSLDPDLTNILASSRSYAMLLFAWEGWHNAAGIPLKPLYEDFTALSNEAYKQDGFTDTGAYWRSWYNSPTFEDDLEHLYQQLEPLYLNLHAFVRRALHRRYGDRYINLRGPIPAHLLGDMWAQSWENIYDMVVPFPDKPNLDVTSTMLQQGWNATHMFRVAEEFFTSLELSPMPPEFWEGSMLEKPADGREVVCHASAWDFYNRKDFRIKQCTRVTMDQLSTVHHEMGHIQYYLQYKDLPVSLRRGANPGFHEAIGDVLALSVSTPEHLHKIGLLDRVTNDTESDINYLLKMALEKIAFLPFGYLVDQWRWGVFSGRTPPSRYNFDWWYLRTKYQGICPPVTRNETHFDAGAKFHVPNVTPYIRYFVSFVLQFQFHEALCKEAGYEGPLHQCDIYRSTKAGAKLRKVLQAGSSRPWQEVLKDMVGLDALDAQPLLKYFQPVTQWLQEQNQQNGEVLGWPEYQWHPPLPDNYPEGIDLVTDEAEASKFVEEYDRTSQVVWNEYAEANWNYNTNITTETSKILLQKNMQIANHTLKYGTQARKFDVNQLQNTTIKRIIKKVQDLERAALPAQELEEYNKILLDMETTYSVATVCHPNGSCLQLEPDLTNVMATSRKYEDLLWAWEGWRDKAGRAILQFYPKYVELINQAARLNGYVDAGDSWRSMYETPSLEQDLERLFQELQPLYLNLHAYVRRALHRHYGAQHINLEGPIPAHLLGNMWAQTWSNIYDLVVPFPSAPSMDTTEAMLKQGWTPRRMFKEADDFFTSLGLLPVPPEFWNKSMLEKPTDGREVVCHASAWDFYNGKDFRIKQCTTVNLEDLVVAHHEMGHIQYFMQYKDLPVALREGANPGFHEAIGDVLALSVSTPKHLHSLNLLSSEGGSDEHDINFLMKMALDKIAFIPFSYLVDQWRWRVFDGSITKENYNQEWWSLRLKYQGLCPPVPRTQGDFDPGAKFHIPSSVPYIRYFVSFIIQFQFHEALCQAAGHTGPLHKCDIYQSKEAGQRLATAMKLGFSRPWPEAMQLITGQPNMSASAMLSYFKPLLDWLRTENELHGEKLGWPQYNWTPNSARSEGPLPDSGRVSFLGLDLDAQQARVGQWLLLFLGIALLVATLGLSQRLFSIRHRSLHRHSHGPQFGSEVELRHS

For `CC(C)C[C@H](NC(=O)[C@H](C)N)C(=O)O` [Ala-Leu] (H-Ala-Leu-OH), the concentration for half-maximal inhibition (IC50) is greater than 200 µM.
The value for `C[C@H](N)C(=O)N[C@@H](Cc1ccc(O)cc1)C(=O)O` [Ala-Tyr] (H-Ala-Tyr-OH) was 163 µM; that for `CC[C@H](C)[C@H](NC(=O)[C@H](CO)NC(=O)[C@@H](N)CC(N)=O)C(=O)O` [Asn-Ser-Ile] (H-Asn-Ser-Ile-OH) was 342 µM; that for `CC(C)C[C@H](NC(=O)[C@@H]1CCCN1C(=O)CN)C(=O)O` [Gly-Pro-Leu] (H-Gly-Pro-Leu-OH) was greater than 500 µM.
The value for `CC[C@H](C)[C@H](N)C(=O)N[C@@H](CCCNC(=N)N)C(=O)O` [Ile-Arg] was 73.7 µM; that for `CC[C@H](C)[C@H](N)C(=O)N1CCC[C@H]1C(=O)N[C@H](C(=O)O)[C@@H](C)O` [Ile-Pro-Thr] (H-Ile-Pro-Thr-OH) was 73.1 µM.
Next, `CC(C)[C@H](NC(=O)[C@@H](N)CCCCN)C(=O)N1CCC[C@H]1C(=O)O` [Lys-Val-Pro] (H-Lys-Val-Pro-OH): greater than 500 µM; `CC[C@H](C)[C@H](NC(=O)[C@@H](N)CO)C(=O)O` [Ser-Ile] (H-Ser-Ile-OH): greater than 200 µM; `CC(C)C[C@H](NC(=O)[C@@H](N)CO)C(=O)O` [Ser-Leu] (H-Ser-Leu-OH; N-terminus and C-terminus assumed): greater than 200 µM.
Consider `N[C@@H](CO)C(=O)N[C@@H](Cc1ccc(O)cc1)C(=O)O` [Ser-Tyr] (H-Ser-Tyr-OH), for which the concentration for half-maximal inhibition (IC50) worked out at 94.7 µM.
As for `CC(C)C[C@H](NC(=O)[C@@H](N)[C@@H](C)O)C(=O)O` [Thr-Leu] (H-Thr-Leu-OH), the IC50 was greater than 200 µM.

One may read the IC50 as the concentration at which inhibition is half-maximal.
